The record followed here is patent US20070009597A1, “Active substance combination comprising a compound with npy receptor affinity and a compound with 5-ht6 receptor affinity” (LABORATORIOS DEL DR. ESTEVE S.A., priority 2003, published 2007).

In this test the target is T1, recombinant human 5HT6 receptor (Homo sapiens, UniProt P50406).
T1 construct: purchased Receptor Biology; host or cells: HEK-293
Kind of test: Binding to the 5HT6 serotonin receptor ([3H]-LSD, HEK-293 cell membranes). The conditions noted are these: for inhibition at 1 µM: read-out: % Inhibition 10^−6 M. The protocol:
Binding to the 5HT6 Serotonin Receptor
The respective part of the literature descriptions is incorporated here by reference and form part of the disclosure. […] The assays are carried out in triplicate.

The mark [1] stands for this setting: 10^−6 M, table 1d, compounds of general formula (Id).
Setting [2] is: 10^−6 M, table 1f, compounds of general formula (If).
Where [3] appears, read: table 1f, compounds of general formula (If).
[4] abbreviates: table 1c, compounds of general formula (Ic).
The mark [5] stands for this setting: table 1e, compounds of general formula (Ie).
Setting [6] is: table 1h, compounds of general formula (Ih).
The mark [7] stands for this setting: 10^−6 M, table 2b, compounds of general formula (Ib).
[8] abbreviates: 10^−6 M, table 1c, compounds of general formula (Ic).

Counter-ions that a name gives are not always drawn. Like-named read-outs stand apart in the source and are kept apart here.

T1 sequence (P50406 whole entry): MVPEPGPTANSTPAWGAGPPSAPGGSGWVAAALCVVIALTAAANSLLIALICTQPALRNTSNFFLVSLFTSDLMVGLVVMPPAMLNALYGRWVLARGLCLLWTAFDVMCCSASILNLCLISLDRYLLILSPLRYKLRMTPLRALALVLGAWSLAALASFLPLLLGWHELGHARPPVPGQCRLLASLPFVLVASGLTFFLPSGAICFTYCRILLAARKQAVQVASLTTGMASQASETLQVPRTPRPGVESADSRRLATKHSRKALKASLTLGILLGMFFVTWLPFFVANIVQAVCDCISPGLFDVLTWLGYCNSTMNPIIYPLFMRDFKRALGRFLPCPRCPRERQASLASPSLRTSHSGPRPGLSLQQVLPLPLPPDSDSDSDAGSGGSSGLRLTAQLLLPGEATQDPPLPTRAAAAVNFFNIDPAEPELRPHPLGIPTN

As to `O=C1OCc2ccccc2N1C1CCN(S(=O)(=O)c2cccc3ccccc23)CC1` [Example 1b, 1-[1-(Naphthyl-1-sulfonyl)-piperidine-4-yl]-1,4-dihydro-benzo[d][1,3]oxazine-2-one], the Ki turned out to be 51.7 nM and the inhibition at 1 µM stood at 98.1 ± 4%. For the molecule `Cc1c(S(=O)(=O)Nc2cccc3c2ccn3CCN(C)C)sc2ccc(Cl)cc12` [Example 1d, N-[1-(2-dimethylaminoethyl)-1H-indole-4-yl]-5-chloro-3-methylbenzo[b]thiophene-2-sulfonamide], the inhibition at 1 µM under setting [1] worked out at 83.9%. Take `Cc1c(S(=O)(=O)Nc2ccc3ccn(CCN(C)C)c3c2)sc2ccc(Cl)cc12` [Example 1f, N-[1-(2-Dimethylaminoethyl)-1H-indol-6-yl]-5-chloro-3-methylbenzo[b]thiophene-2-sulfonamide]: under setting [2], the inhibition at 1 µM was 98.6%. For the same molecule, under setting [3], the Ki worked out at 90.2 nM. For the molecule `CN1CC=C(c2cn(S(=O)(=O)C3CCCCC3)c3ccc([N+](=O)[O-])cc23)CC1` [Example 1h, 1-cyclohexanesulfonyl-3-(1-methyl-1,2,3,6-tetrahydropyridine-4-yl)-5-nitro-1H-indole], for the setting “10^−6 M, table 1h, compounds of general formula (Ih)”, the inhibition at 1 µM amounted to 59.8 ± 3%. For the molecule `CN(C)CCn1ccc2c(NS(=O)(=O)c3ccc4ccccc4c3)cccc21` [Example 2d, N-[1-(2-dimethylaminoethyl)-1H-indole-4-yl]-naphtalene-2-sulfonamide], the “% Inhibition 10^−6 M” value under setting [1] turned out to be 104.3%. For `CN(C)CCn1ccc2ccc(NS(=O)(=O)c3ccc4ccccc4c3)cc21` [Example 2f, N-[1-(2-Dimethylaminoethyl)-1H-indol-6-yl]-naphthalene-2-sulfonamide], the Ki stood at 41.2 nM and the inhibition at 1 µM is 97.7%. Take `Cc1c(S(=O)(=O)N2CCC(N3C(=O)OCc4ccccc43)CC2)sc2ccc(Cl)cc12` [Example 3b, 1-[1-(5-chloro-3-methyl-benzo[b]tiophene-2-sulfonyl)-piperidine-4-yl]-1,4-dihydro-benzo[d][1,3]oxazine-2-one]: the Ki came out at 107 nM. For `CCN(CC)CCc1c[nH]c2ccc(NS(=O)(=O)c3cccc4ccccc34)cc12` [Example 3c, Hydrochloride N-[3-(2-diethylaminoethyl)-1H-indol-5-yl]naphthalene-1-sulphonamide], the Ki under setting [4] came to 3.5 nM. Take `CN(C)CCn1ccc2c(NS(=O)(=O)c3cccc4ccccc34)cccc21` [Example 3d, N-[1-(2-dimethylaminoethyl)-1H-indole-4-yl]-naphtalene-1-sulfonamide]: under setting [1], the “% Inhibition 10^−6 M” value amounted to 94.8%.

On to `CN(C)CCn1ccc2cc(NS(=O)(=O)c3cccc4ccccc34)ccc21` [Example 3e, N-[1-(2-dimethylaminoethyl)-1H-indole-5-yl]-naphthalene-1-sulfonamide], for which the Ki under setting [5] came to 94.2 nM. On to `CN(C)CCn1ccc2ccc(NS(=O)(=O)c3cccc4ccccc34)cc21` [Example 3f, N-[1-(2-Dimethylaminoethyl)-1H-indol-6-yl]-naphthalene-1-sulfonamide], for which, under setting [2], the “% Inhibition 10^−6 M” value was 95.3%. The Ki under setting [3] came out at 19.8 nM. `CN1CC=C(c2cn(S(=O)(=O)C3CCCCC3)c3ccc(N)cc23)CC1` [Example 3h, 5-amino-1-cyclohexanesulfonyl-3-(1-methyl-1,2,3,6-tetrahydropyridine-4-yl)-1H-indole]: under setting [6], the Ki amounted to 55.1 nM. Consider `Cc1cccc2c1N(C1CCN(S(=O)(=O)c3cccc4ccccc34)CC1)C(=O)OC2` [Example 4b, 8-Methyl-1-[1-(naphthyl-1-sulfonyl)-piperidine-4-yl]-1,4-dihydro-benzo[d][1,3]oxazine-2-one], for which the Ki was determined as 246 nM. `CCN(CC)CCc1c[nH]c2ccc(NS(=O)(=O)c3cc(Cl)cc(Cl)c3)cc12` [Example 4c, N-[3-(2-diethylaminoethyl)-1H-indol-5-yl]-3,5-dichlorobenzenesulphonamide]: the Ki under setting [4] was found to be 9.3 nM.

Regarding `CN(C)CCn1ccc2c(NS(=O)(=O)c3ccc(-c4ccccc4)cc3)cccc21` [Example 4d, N-[1-(2-dimethylaminoethyl)-1H-indole-4-yl]-4-phenylbenzenesulfonamide], the inhibition at 1 µM under setting [1] is 46.6%.

With `CN(C)CCn1ccc2cc(NS(=O)(=O)c3cccc4c(Cl)cccc34)ccc21` [Example 4e, N-[1-(2-dimethylaminoethyl)-1H-indole-5-yl]-5-chloronaphthalene-1-sulfonamide], under setting [5], the Ki is 112 nM.

For the molecule `CN(C)CCn1ccc2ccc(NS(=O)(=O)c3c(Cl)nc4sccn34)cc21` [Example 4f, N-[1-(2-Dimethylaminoethyl)-1H-indol-6-yl]-6-chloroimidazo[2,1-b]thiazole-5-sulfonamide], the inhibition at 1 µM under setting [2] worked out at 90.8%. Besides, the Ki under setting [3] is 55.2 nM.

On to `O=S(=O)(C1CCCCC1)n1cc(C2=CCN3CCCC3C2)c2cc(F)ccc21` (stereo not shown) [Example 4h, 1-cyclohexanesulfonyl-5-fluoro-3-(1,2,3,5,8,8a-hexahydro-indolizine-7-yl)-1H-indole], for which, under setting [6], the Ki was 191 nM. With `O=C1OCc2ccccc2N1C1CCN(S(=O)(=O)c2cccc3cccnc23)CC1` [Example 5b], the Ki stood at 152 nM. Consider `CCN(CC)CCc1c[nH]c2ccc(NS(=O)(=O)c3ccc(-c4ccccc4)cc3)cc12` [Example 5c, N-[3-(2-diethylaminoethyl)-1H-indol-5-yl]-4-phenylbenzenesulphonamide], for which the Ki under setting [4] amounted to 1 nM.

For the molecule `CN(C)CCn1ccc2ccc(NS(=O)(=O)c3ccc(-c4ccccc4)cc3)cc21` [Example 5f, N-[1-(2-Dimethylaminoethyl)-1H-indol-6-yl]-4-phenylbenzenesulfonamide], under setting [2], the inhibition at 1 µM came out at 93.4%.

As for `Cc1cccc2c1N(C1CCN(S(=O)(=O)c3cccc4cccnc34)CC1)C(=O)OC2` [Example 6b, 8-Methyl-1-[1-(quinolinyl-8-sulfonyl)-piperidine-4-yl]-1,4-dihydro-benzo[d][1,3]oxazine-2-one], where the note is “table 2b, compounds of general formula (Ib)”, the Ki came to 166 nM.

On to `CN(C)CCn1ccc2c(NS(=O)(=O)c3ccc(Oc4ccccc4)cc3)cccc21` [Example 6d, N-[1-(2-dimethylaminoethyl)-1H-indole-4-yl]-4-phenoxybenzenesulfonamide], for which the “% Inhibition 10^−6 M” value under setting [1] is on record as 55.8%. In the case of `CN(C)CCn1ccc2ccc(NS(=O)(=O)CCc3cccc4ccccc34)cc21` [Example 6f, N-[1-(2-Dimethylaminoethyl)-1H-indol-6-yl]-2-(naphthalene-1-yl)-ethanesulfonamide], under setting [2], the inhibition at 1 µM is 94.5%. Also, under setting [3], the Ki was 74.5 nM.

Regarding `Cc1cccc2c1N(C1CCN(S(=O)(=O)c3cccc4c(N(C)C)cccc34)CC1)C(=O)OC2` [Example 7b, 1-[1-(5-Dimethylamino-naphthyl-1-sulfonyl)-piperidine-4-yl]-8-Methyl-1,4-dihydro-benzo[d][1,3]oxazine-2-one], the inhibition at 1 µM under setting [7] was found to be 88%. For the molecule `CN(C)CCn1ccc2ccc(NS(=O)(=O)c3ccc(Oc4ccccc4)cc3)cc21` [Example 7f, N-[1-(2-Dimethylaminoethyl)-1H-indol-6-yl]-4-phenoxybenzenesulfonamide], the “% Inhibition 10^−6 M” value under setting [2] was 95.1%. The Ki under setting [3] came out at 119 nM. Turning to `CN(C)c1cccc2c(S(=O)(=O)N3CCC(N4C(=O)OCc5ccccc54)CC3)cccc12` [Example 8b, 1-[1-(5-Dimethylamino-naphthyl-1-sulfonyl)-piperidine-4-yl]-1,4-dihydro-benzo[d][1,3]oxazine-2-one], the inhibition at 1 µM under setting [7] came to 68%. `CN(C)CCn1ccc2ccc(NS(=O)(=O)c3cc(Cl)cc(Cl)c3)cc21` [Example 8f, N-[1-(2-Dimethylaminoethyl)-1H-indol-6-yl]-3,5-dichlorobenzenesulfonamide]: the inhibition at 1 µM under setting [2] was determined as 86.9%. For the same molecule, the Ki under setting [3] is 159 nM. Regarding `CN(C)CCn1ccc2cc(NS(=O)(=O)c3c(Cl)nc4sccn34)ccc21` [Example 11e, N-[1-(2-dimethylaminoethyl)-1H-indole-5-yl]-6-chloroimidazo[2,1-b]thiazole-5-sulfonamide], the Ki under setting [5] came to 1.89 nM. On the same count and under the same terms, the same measure for `CN(C)CCn1ccc2cc(NS(=O)(=O)c3cc(Cl)cc(Cl)c3)ccc21` [Example 12e, N-[1-(2-dimethylaminoethyl)-1H-indole-5-yl]-3,5-dichlorobenzenesulfonamide]: 105 nM.

For the molecule `CN1CCC(c2c[nH]c3ccc(NS(=O)(=O)c4cccc5ccccc45)cc23)CC1` [Example 13c, N-[3-(1-methylpiperidin-4-yl)-1H-indol-5-yl]naphthalene-1-sulphonamide hydrochloride], the Ki was 4.7 nM. `CN(C)CCn1ccc2cc(NS(=O)(=O)c3cccc(Br)c3)ccc21` [Example 13e, N-[1-(2-dimethylaminoethyl)-1H-indole-5-yl]-3-bromobenzenesulfonamide]: under setting [5], the Ki is 82.5 nM. Turning to `CN1CCC(c2c[nH]c3ccc(NS(=O)(=O)c4ccc(Cl)s4)cc23)CC1` [Example 14c, N-[3-(1-methylpiperidin-4-yl)-1H-indol-5-yl]-5-chlorothiophene-2-sulphonamide], the “% Inhibition 10^−6 M” value under setting [8] came to 95.7 ± 3.4%. The Ki under setting [4] came to 24.3 nM. Taken in the same sequence, the figures for `CN1CCC(c2c[nH]c3ccc(NS(=O)(=O)c4ccc(-c5ccccc5)cc4)cc23)CC1` [Example 15c, N-[3-(1-methylpiperidin-4-yl)-1H-indol-5-yl]-4-phenylbenzenesulphonamide] were 97.4 ± 0.8% and 6.8 nM. On the same counts, the results for `CN1CCC(c2c[nH]c3ccc(NS(=O)(=O)c4cccc5cccnc45)cc23)CC1` [Example 16c, N-[3-(1-methylpiperidin-4-yl)-1H-indol-5-yl]quinoline-8-sulphonamide] are 94.4 ± 8.6% and 21.2 nM.
